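1) Cells in 96-well plates. 2) Compound, 48 h, 5 concentrations. 3) Linear interpolation between surrounding doses. 4) Unreached endpoint = highest concentration. TGI: concentration producing complete growth inhibition.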
How the values were obtained:
Experiment in all cases: DTP human tumour cell line panel, 48 h
[1] = tested on: CAKI-1 renal
[2] = tested on: 786-0 renal
[3] = tested on: CCRF-CEM leukemia
[4] = tested on: ACHN renal
[5] = tested on: SK-MEL-5 melanoma
[6] = tested on: SF-539 CNS
[7] = tested on: UACC-62 melanoma
[8] = tested on: SF-268 CNS
[9] = tested on: NCI-H226 lung
[10] = tested on: SK-MEL-28 melanoma
[11] = tested on: A549 NSCLC
[12] = tested on: IGROV1 ovarian
[13] = tested on: NCI-H460 lung
[14] = tested on: OVCAR-8 ovarian
[15] = tested on: UACC-257 melanoma
[16] = tested on: PC-3 prostate
[17] = tested on: DU-145 prostate
[18] = tested on: HS 578T breast
[19] = tested on: T-47D breast

## CCOC(=O)/C(=C/c1ccccc1Br)P(=O)(OCC)OCC
[1]
  TGI: 4.3 µM
[2]
  TGI: 2.66 µM
[3]
  TGI: 3.16 µM
[4]
  TGI: 6 µM
[5]
  TGI: 3.51 µM
[6]
  TGI: 6.22 µM
[7]
  TGI: 3.29 µM
[8]
  TGI: 10.5 µM
[9]
  TGI: 6.89 µM
[10]
  TGI: 4.66 µM
[11]
  TGI: 10.7 µM
[12]
  TGI: 10.1 µM
[13]
  TGI: 10.7 µM
[14]
  TGI: 8.09 µM

## O=C1NC(=O)C2C1C1C=C3c4ccccc4N(c4ccccc4)C32[C@H]2C(=O)NC(=O)[C@@H]12 (stereo partly drawn)
[1]
  TGI: > 100 µM
[2]
  TGI: > 100 µM
[3]
  TGI: > 100 µM
[4]
  TGI: > 100 µM
[5]
  TGI: > 100 µM
[6]
  TGI: > 100 µM
[15]
  TGI: > 100 µM
[7]
  TGI: > 100 µM
[8]
  TGI: > 100 µM
[9]
  TGI: > 100 µM
[10]
  TGI: > 100 µM
[11]
  TGI: > 100 µM
[12]
  TGI: > 100 µM
[13]
  TGI: > 100 µM
[14]
  TGI: > 100 µM

## CCCCCC#COC1CC(C)CC[C@@H]1C(C)C (stereo partly drawn)
[1]
  TGI: > 100 µM
[2]
  TGI: > 100 µM
[3]
  TGI: 31.9 µM
[4]
  TGI: > 100 µM
[5]
  TGI: > 100 µM
[6]
  TGI: > 100 µM
[15]
  TGI: > 100 µM
[7]
  TGI: > 100 µM
[8]
  TGI: > 100 µM
[9]
  TGI: > 100 µM
[10]
  TGI: > 100 µM
[11]
  TGI: > 100 µM
[12]
  TGI: 79.5 µM
[13]
  TGI: 55.4 µM
[14]
  TGI: > 100 µM

## c1ccc2cc(CNCCCCNCCCNCc3ccc4ccccc4c3)ccc2c1
[1]
  TGI: 3.31 µM
[16]
  TGI: 3.3 µM
[2]
  TGI: 0.323 µM
[3]
  TGI: > 100 µM
[4]
  TGI: 2.92 µM
[6]
  TGI: 3.47 µM
[17]
  TGI: 2.53 µM
[15]
  TGI: 3.55 µM
[7]
  TGI: 3.52 µM
[8]
  TGI: 2.83 µM
[9]
  TGI: 2.78 µM
[18]
  TGI: 1.26 µM
[10]
  TGI: 3.34 µM
[11]
  TGI: 4.25 µM
[12]
  TGI: 1.69 µM
[13]
  TGI: 0.338 µM
[14]
  TGI: 3.2 µM

## CCCCCCCc1cscc1-c1cscc1Br
[1]
  TGI: 91.2 µM
[16]
  TGI: > 100 µM
[2]
  TGI: > 100 µM
[3]
  TGI: 40.3 µM
[4]
  TGI: > 100 µM
[5]
  TGI: > 100 µM
[6]
  TGI: > 100 µM
[17]
  TGI: > 100 µM
[15]
  TGI: > 100 µM
[7]
  TGI: > 100 µM
[8]
  TGI: > 100 µM
[9]
  TGI: > 100 µM
[19]
  TGI: 88.3 µM
[10]
  TGI: > 100 µM
[11]
  TGI: > 100 µM
[12]
  TGI: > 100 µM
[13]
  TGI: > 100 µM
[14]
  TGI: > 100 µM

## O=C(CCN1CCC(CCO)CC1)Nc1ccc2c(c1)C(=O)c1ccc(NC(=O)CCN3CCC(CCO)CC3)cc1C2=O
[1]
  TGI: > 100 µM
[2]
  TGI: 27.2 µM
[3]
  TGI: 42.5 µM
[4]
  TGI: > 100 µM
[5]
  TGI: > 100 µM
[6]
  TGI: 19.4 µM
[15]
  TGI: > 100 µM
[7]
  TGI: 38.4 µM
[8]
  TGI: 45.7 µM
[9]
  TGI: 76.5 µM
[10]
  TGI: > 100 µM
[11]
  TGI: > 100 µM
[12]
  TGI: > 100 µM
[13]
  TGI: 15.5 µM
[14]
  TGI: 61.6 µM

## Cc1[nH]c2nc3c(ncn3COCCO)c(=O)n2c1C(c1ccccc1)(c1ccccc1)c1ccccc1
[1]
  TGI: > 100 µM
[16]
  TGI: 26 µM
[2]
  TGI: 32.2 µM
[3]
  TGI: > 52.9 µM
[4]
  TGI: 35.5 µM
[5]
  TGI: 29.4 µM
[6]
  TGI: 19.2 µM
[17]
  TGI: 26.2 µM
[15]
  TGI: 27.4 µM
[7]
  TGI: 24 µM
[8]
  TGI: 33.1 µM
[18]
  TGI: > 91.2 µM
[19]
  TGI: 29.7 µM
[10]
  TGI: 43.5 µM
[11]
  TGI: 40.5 µM
[12]
  TGI: 28.4 µM
[13]
  TGI: 30.9 µM
[14]
  TGI: 32.4 µM

## CCc1ccc(Nc2cc(=O)n(C)c(SCc3ccccc3)n2)cc1
[1]
  TGI: > 100 µM
[2]
  TGI: 34.4 µM
[3]
  TGI: > 100 µM
[4]
  TGI: > 100 µM
[5]
  TGI: > 100 µM
[6]
  TGI: > 100 µM
[17]
  TGI: > 100 µM
[15]
  TGI: > 100 µM
[7]
  TGI: > 100 µM
[8]
  TGI: > 100 µM
[9]
  TGI: > 100 µM
[18]
  TGI: > 100 µM
[19]
  TGI: > 100 µM
[11]
  TGI: > 100 µM
[12]
  TGI: > 100 µM
[14]
  TGI: > 100 µM

## CC(=O)Oc1ccc(Nn2c3ccccc3c3ccccc32)c(C)c1
[2]
  TGI: 41.7 µM
[3]
  TGI: > 100 µM
[5]
  TGI: > 100 µM
[15]
  TGI: > 100 µM
[7]
  TGI: > 100 µM
[8]
  TGI: > 100 µM
[10]
  TGI: > 100 µM
[11]
  TGI: > 100 µM
[12]
  TGI: 94.2 µM
[13]
  TGI: > 100 µM
[14]
  TGI: 78.6 µM

## O=C(Cc1ccccc1)NN1C(=O)C(Cl)C1c1cccc([N+](=O)[O-])c1 (stereo not drawn)
[1]
  TGI: > 63.8 µM
[2]
  TGI: > 84.4 µM
[3]
  TGI: 5.97 µM
[4]
  TGI: > 100 µM
[5]
  TGI: > 100 µM
[6]
  TGI: > 100 µM
[15]
  TGI: > 100 µM
[7]
  TGI: > 100 µM
[8]
  TGI: > 100 µM
[9]
  TGI: > 90.1 µM
[10]
  TGI: > 100 µM
[11]
  TGI: > 100 µM
[12]
  TGI: 19.3 µM
[13]
  TGI: > 100 µM
[14]
  TGI: > 100 µM

## O=C(Cc1ccccc1)N/N=C(/c1nc2ccc([N+](=O)[O-])cc2[nH]c1=O)C(O)c1ccccc1Cl (stereo not drawn)
[1]
  TGI: > 100 µM
[2]
  TGI: > 100 µM
[3]
  TGI: > 100 µM
[4]
  TGI: > 100 µM
[5]
  TGI: > 100 µM
[6]
  TGI: > 100 µM
[15]
  TGI: > 100 µM
[7]
  TGI: > 100 µM
[8]
  TGI: > 100 µM
[9]
  TGI: > 100 µM
[10]
  TGI: > 100 µM
[11]
  TGI: > 100 µM
[12]
  TGI: > 100 µM
[13]
  TGI: > 100 µM
[14]
  TGI: > 100 µM

## O=C1CC(C(OCc2ccccc2)C(OCc2ccccc2)C(OCc2ccccc2)C(COCc2ccccc2)OCc2ccccc2)CC(=O)N1 (stereo not drawn)
[16]
  TGI: > 100 µM
[2]
  TGI: > 100 µM
[3]
  TGI: > 100 µM
[4]
  TGI: > 100 µM
[5]
  TGI: > 100 µM
[17]
  TGI: > 100 µM
[15]
  TGI: > 100 µM
[8]
  TGI: > 100 µM
[18]
  TGI: > 100 µM
[10]
  TGI: > 100 µM
[11]
  TGI: > 100 µM
[12]
  TGI: > 100 µM
[13]
  TGI: > 100 µM
[14]
  TGI: > 100 µM

## C=C(CCC/C(C)=C/C=C/[C@H](C)CCCc1ccoc1)C[C@@H]1OC(=O)[C@H](C)[C@@H]1O
[1]
  TGI: 19.2 µM
[16]
  TGI: 17.2 µM
[2]
  TGI: 27.4 µM
[3]
  TGI: 33.6 µM
[4]
  TGI: 18.4 µM
[5]
  TGI: 17 µM
[6]
  TGI: 19.2 µM
[17]
  TGI: 19 µM
[15]
  TGI: 16.4 µM
[7]
  TGI: 16.6 µM
[8]
  TGI: 18.1 µM
[9]
  TGI: 16.6 µM
[19]
  TGI: 17.6 µM
[10]
  TGI: 15.6 µM
[11]
  TGI: 15.2 µM
[12]
  TGI: 24.6 µM
[13]
  TGI: 45 µM
[14]
  TGI: 27.5 µM

## O=c1oc2ccc3ccccc3c2cc1-c1cn2c(n1)sc1ccccc12
[1]
  TGI: > 100 µM
[16]
  TGI: > 100 µM
[2]
  TGI: > 100 µM
[3]
  TGI: > 100 µM
[4]
  TGI: > 100 µM
[5]
  TGI: > 100 µM
[17]
  TGI: > 100 µM
[15]
  TGI: > 100 µM
[7]
  TGI: > 100 µM
[8]
  TGI: > 100 µM
[9]
  TGI: > 100 µM
[18]
  TGI: > 100 µM
[10]
  TGI: > 100 µM
[11]
  TGI: > 100 µM
[12]
  TGI: > 100 µM
[13]
  TGI: > 100 µM
[14]
  TGI: > 100 µM
